Assays:
[1] = Single dose IV PK, metabolism and excretion of LNP lipids in rats; assay type: in vivo; details: for drop of concentration in liver / drop of concentration in plasma: two weeks
Description: A single dose PK study of ALC-0315 and […] following intravenous (IV) bolus injection of a nanoparticle formulation in rats was conducted to assess the PK and metabolism of lipid excipients ALC-0315 and ALC-0159.
(§1) In vitro metabolism of ALC-0315 and ALC-0159 was evaluated in blood, liver microsomes, S9 fractions, and hepatocytes from mice, rats, monkeys, and humans. In vivo metabolism was examined in rat plasma, urine, faeces, and liver samples from the PK study. […] ALC-0315 and ALC-0159 are apparently metabolised by hydrolytic metabolism of the ester and amide functionalities, respectively, and this hydrolytic metabolism is observed across the species evaluated.

[2] = In vitro metabolism in blood, liver microsomes, S9 fractions, hepatocytes; assay type: in vitro ADME, mice, rats, monkeys, and humans; details: rat samples
Description: as §1

[3] = target: human ACE2 peptidase domain (amino acids 1-615 of human ACE2 with C-terminal His-10 and Avi tags) (human) (UniProt Q9BYF1)
[4] = target: human ACE2 peptidase domain (amino acids 1-615 of human ACE2 with C-terminal His-10 and Avi tags) (human) (UniProt Q9BYF1); assay: biolayer interferometry; compared with a literature value for monomeric RBD

UniProt Q9BYF1, sequence (Q9BYF1 18-615 limits assumed): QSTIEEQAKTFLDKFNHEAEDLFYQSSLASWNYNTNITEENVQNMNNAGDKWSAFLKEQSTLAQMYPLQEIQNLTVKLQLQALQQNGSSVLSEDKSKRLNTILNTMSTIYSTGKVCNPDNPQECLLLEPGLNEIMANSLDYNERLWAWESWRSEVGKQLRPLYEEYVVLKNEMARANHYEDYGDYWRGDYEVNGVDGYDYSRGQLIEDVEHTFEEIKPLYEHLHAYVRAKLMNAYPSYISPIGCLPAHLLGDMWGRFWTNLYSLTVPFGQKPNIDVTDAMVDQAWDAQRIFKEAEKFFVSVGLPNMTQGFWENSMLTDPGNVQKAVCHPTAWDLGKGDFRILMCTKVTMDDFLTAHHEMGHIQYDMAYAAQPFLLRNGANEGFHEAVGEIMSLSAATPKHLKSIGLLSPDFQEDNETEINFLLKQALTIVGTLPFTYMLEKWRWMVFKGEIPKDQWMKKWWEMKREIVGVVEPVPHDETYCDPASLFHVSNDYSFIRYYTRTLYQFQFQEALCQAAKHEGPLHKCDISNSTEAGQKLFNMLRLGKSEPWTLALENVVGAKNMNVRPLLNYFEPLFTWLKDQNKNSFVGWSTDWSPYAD

Molecule: CCCCCCCCCCCCCCN(CCCCCCCCCCCCCC)C(=O)COCCOCCOCCOCCOCCOCCOCCOCCOCCOCCOCCOCCOCCOCCOCCOCCOCCOCCOCCOCCOCCOCCOCCOCCOCCOCCOCCOCCOCCOCCOCCOCCOCCOCCOCCOCCOCCOCCOCCOCCOCCOCCOCCOCCOCCOC [ALC-0159, 2-[(polyethylene glycol)-2000]-N,N-ditetradecylacetamide]
- eliminated unchanged in faeces [1]: 50%
- apparent terminal t½ in plasma and liver ([1]; IV bolus of LNP): 2 to 3 days
- drop of concentration in liver ([1]; IV bolus of LNP): > 250 fold
- drop of concentration in plasma ([1]; IV bolus of LNP): approximately 8000 fold
- rate of metabolism in vitro and in vivo [2]: relatively slowly

Molecule: CCCCCCCCC(CCCCCC)C(=O)OCCCCCCN(CCCCO)CCCCCCOC(=O)C(CCCCCC)CCCCCCCC (stereo not drawn) [ALC-0315, ((4-hydroxybutyl)azanediyl)bis(hexane-6,1-diyl)bis(2-hexyldecanoate)]
- eliminated unchanged in faeces [1]: little to no unchanged material
- drop of concentration in liver ([1]; IV bolus of LNP): ~4 fold
- drop of concentration in plasma ([1]; IV bolus of LNP): approximately 7000 fold
- half-life ([1]; rat, plasma and liver, IV bolus of LNP, read-out: apparent terminal t½ in plasma and liver): 6 to 8 days
- rate of metabolism in vitro and in vivo [2]: relatively slowly

Molecule: RBD-foldon trimer encoded by BNT162b1 (SARS-CoV-2 spike receptor-binding domain fused at its C-termi (other; other documents disagree on this pair)
- Kd [3]: 5 pM
- fold of the reported KD of monomeric RBD [4]: 1000 fold
